Here are results for one compound from US8703790B2, “Bis [O-(14-benzoylaconine-8-yl)] esters” (priority 2008, dated 2014).

Data set [1] addresses T1, purified human recombinant Top 1 (Homo sapiens, UniProt P11387).
T1 sequence (P11387 1-765): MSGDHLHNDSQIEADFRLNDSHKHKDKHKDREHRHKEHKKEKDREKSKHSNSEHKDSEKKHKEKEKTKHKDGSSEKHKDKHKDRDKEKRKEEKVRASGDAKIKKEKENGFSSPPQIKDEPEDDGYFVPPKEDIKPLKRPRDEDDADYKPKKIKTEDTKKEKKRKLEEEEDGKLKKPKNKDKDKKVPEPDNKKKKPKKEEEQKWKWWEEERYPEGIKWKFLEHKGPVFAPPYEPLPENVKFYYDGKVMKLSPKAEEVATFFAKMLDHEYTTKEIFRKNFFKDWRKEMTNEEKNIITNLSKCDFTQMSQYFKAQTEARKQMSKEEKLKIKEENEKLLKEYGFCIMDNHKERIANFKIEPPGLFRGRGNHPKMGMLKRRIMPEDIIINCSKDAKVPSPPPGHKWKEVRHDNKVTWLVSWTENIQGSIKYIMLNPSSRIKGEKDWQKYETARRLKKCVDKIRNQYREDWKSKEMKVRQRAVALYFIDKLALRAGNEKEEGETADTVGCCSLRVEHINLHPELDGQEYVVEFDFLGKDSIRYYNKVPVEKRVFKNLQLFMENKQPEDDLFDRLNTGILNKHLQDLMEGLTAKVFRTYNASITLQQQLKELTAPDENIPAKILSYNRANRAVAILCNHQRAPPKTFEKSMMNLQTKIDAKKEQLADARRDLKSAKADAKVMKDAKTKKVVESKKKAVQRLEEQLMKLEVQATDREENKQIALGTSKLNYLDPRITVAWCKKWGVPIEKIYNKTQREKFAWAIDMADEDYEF
Put plainly: Top1-catalysed cleavage assay. It is filed as biochemical. Conditions: 1, 10, 100 and 1000 μM. As to the method:
The influence of SDD has been studied at various concentrations on Top 1 cleavage activity in comparison with Camptothecin.
The method consists in an incubation of 3′-labeled oligonucleotides with enzyme Top1, or Top 1+CPT or Top 1-SDD.
3′-end labelling of the scissile strand was performed as described previously in the publication: Conversion of topoisomerase I cleavage complexes on the leading strand of ribosomal DNA into 5′-phosphorylated DNA double-strand breaks by replication runoff. Pommier, Y.; Jenkins, J.; Kohlhagen, G.; and Leteurtre, F.; Mutat. Res. (1995), 337, 135-145.
Thus, 10 pmol of […] was incubated in labelling buffer (100 mM potassium cacodylate, pH 7.2, 2 mM CaCl2, 200 μM DTT) for 1 h at 37° C.
The reaction mixture was passed through a G-25 Sephadex spin column by centrifugation at 1000 g for 5 min to remove the excess of unincorporated nucleotide.
The 3′-labeled oligonucleotide was mixed with the same amount of unlabeled complementary strand in annealing buffer (i.e. 10 mM Tris-HCl, pH 7.8, […]) and annealed by heating the reaction mixture for 5 min at 95° C. followed by slow cool down at room temperature. […]
Imaging and quantification of the cleavage products were performed using a Typhoon Phosphorimager (Amersham Biosciences) as described in Inhibition of Topoisomerase I cleavage activity by thiol-reactive compounds. […]

A short description of data set [2]: Partition coefficient log D (pH 7.4), micro HPLC method, n-octanol/phosphate buffer. Conditions: n-octanol/phosphate buffer pH 7.4. Type of data set: physicochemical. As to the method: The relative log D (pH 7.4) in this study was assessed by the micro HPLC method which is disclosed in A microscale HPLC method for the evaluation of octanol-water partition coefficients in a series of new 2-amino-2oxazolines Pehourcq, F.; Thomas, J.; Jarry, C., J. Liq. Chromatogr. Relat. Technol. (2000), 23, 443-453.
These determinations were performed with a chromatographic apparatus (Spectra Series, San Jose, USA). A reversed phase column was used: a Stability RP18 (4.6×150 mm; 5 μm particle size) with a mobile phase consisting of acetonitrile (+1‰ trifluoroacetic acid)−water (+1‰ trifluoroacetic acid) (40:60 v/v).
The compound was partitioned between n-octanol (HPLC grade) and phosphate buffer (pH=7.4). Octanol was presatured with buffer, and conversely. An amount of 1 mg of the compound was dissolved in an adequate volume of methanol in order to achieve 1 mg/mL stock solutions. Then, an appropriate aliquot of this methanolic solution was dissolved in buffer to obtain final concentration of 100 μg/mL. Under the above described chromatographic conditions, 20 μL of this aqueous phase was injected into the chromatograph, leading to the determination of a peak area before partitioning (W0).
In screw-capped tubes, 2000 μL of the aqueous phase (Vag) was then added to 10 μL of n-octanol (Voct) at pH=7.4. […] Log D was calculated from the formula: log D=log [(W0−W1)Vaq/W1Voct].

Consider `CCN1C[C@]2(COC)[C@H](O)C[C@H](OC)[C@]34C1[C@H]([C@H](OC)[C@H]23)[C@]1(OC(=O)CCCCCCC(=O)O[C@]23[C@H]5[C@@H](OC(=O)c6ccccc6)[C@](O)(C[C@H]5[C@@]56C7[C@@H]2[C@H](OC)[C@@H]5[C@](COC)(CN7CC)[C@H](O)C[C@@H]6OC)[C@@H](OC)[C@@H]3O)[C@H]2[C@@H](OC(=O)c3ccccc3)[C@](O)(C[C@H]24)[C@@H](OC)[C@@H]1O` [SDD, bis[O-(14-benzoylaconine-8-yl)]-suberate], for which, in data set [1], the “Top 1 inhibitory activity compared with camptothecin” value was “no Top 1 inhibitory activity”. For the same compound, the “log D (pH 7.4)” value in data set [2] came to 2.86.
